Measured values as given in ChEMBL document CHEMBL5625259, “Direct-to-biology platform: From synthesis to biological evaluation of SHP2 allosteric inhibitors” (Bioorg Med Chem Lett, 2024).

Molecular target: T1, Tyrosine-protein phosphatase non-receptor type 11 (Homo sapiens, UniProt Q06124)
T1 sequence (Q06124 whole entry): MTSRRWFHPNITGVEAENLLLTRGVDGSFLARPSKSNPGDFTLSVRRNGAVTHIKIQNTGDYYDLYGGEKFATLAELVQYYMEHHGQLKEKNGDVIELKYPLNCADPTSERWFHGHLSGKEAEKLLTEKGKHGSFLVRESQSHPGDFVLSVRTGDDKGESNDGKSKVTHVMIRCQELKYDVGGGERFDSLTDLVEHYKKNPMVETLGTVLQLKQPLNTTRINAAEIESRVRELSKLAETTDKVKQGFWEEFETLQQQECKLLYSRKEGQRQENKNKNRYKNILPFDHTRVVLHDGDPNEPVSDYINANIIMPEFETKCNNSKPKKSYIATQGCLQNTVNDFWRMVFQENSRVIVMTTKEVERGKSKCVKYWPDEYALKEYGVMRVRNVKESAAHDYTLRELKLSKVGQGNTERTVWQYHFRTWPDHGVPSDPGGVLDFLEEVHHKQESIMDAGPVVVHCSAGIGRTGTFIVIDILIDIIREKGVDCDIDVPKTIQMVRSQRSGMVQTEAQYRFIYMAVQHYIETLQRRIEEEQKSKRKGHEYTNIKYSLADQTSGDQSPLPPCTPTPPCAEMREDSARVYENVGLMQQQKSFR
Assay: Allosteric inhibition of wild type SHP2 (unknown origin) assessed as dephosphorylation of DIFMUP by fluorescence based envision microplate reader analysis

Which IC50 does the source give for `FC(F)(F)c1ncccc1Sc1cnc2[nH]c(N3CCCC4(CNCCO4)C3)nc2n1` (stereo unspecified) here?
The IC50 was over 3.2 µM.
